Results published in article PMC9958262, “Endocannabinoids enhance hKV7.1/KCNE1 channel function and shorten the cardiac action potential and QT interval” (eBioMedicine, 2023).
One block for each molecule: values may come before it.

How the values were obtained:
Type in all cases: cell-based
hKV7.1/KCNE1 (KV7.1) [1] = target: T1, hKV7.1/KCNE1 (KV7.1) (Homo sapiens, UniProt P51787); assay: two-electrode voltage clamp in Xenopus oocytes, V50 shift at […]
T1 construct: gene KCNQ1; with KCNE1

hKV7.1/KCNE1 (KV7.1) [2] = target: T1, hKV7.1/KCNE1 (KV7.1); assay: two-electrode voltage clamp in Xenopus oocytes, V50 shift; mutagenesis (R228Q abolishes V50 shift); also active on KV7.[…] alone (EC50 […])
hKV7.1/KCNE1 (KV7.1) [3] = target: T1, hKV7.1/KCNE1 (KV7.1); assay: two-electrode voltage clamp in Xenopus oocytes, V50 shift
hKV7.1/KCNE1 (KV7.1) [4] = target: T1, hKV7.1/KCNE1 (KV7.1); assay: two-electrode voltage clamp in Xenopus oocytes, V50 shift (current amplitude EC50 […]); site mutagenesis supported by MD
hKV7.1/KCNE1 (KV7.1) [5] = target: T1, hKV7.1/KCNE1 (KV7.1); assay: two-electrode voltage clamp in Xenopus oocytes, V50 shift at […] (moderate effect)

T1 sequence (P51787 whole entry): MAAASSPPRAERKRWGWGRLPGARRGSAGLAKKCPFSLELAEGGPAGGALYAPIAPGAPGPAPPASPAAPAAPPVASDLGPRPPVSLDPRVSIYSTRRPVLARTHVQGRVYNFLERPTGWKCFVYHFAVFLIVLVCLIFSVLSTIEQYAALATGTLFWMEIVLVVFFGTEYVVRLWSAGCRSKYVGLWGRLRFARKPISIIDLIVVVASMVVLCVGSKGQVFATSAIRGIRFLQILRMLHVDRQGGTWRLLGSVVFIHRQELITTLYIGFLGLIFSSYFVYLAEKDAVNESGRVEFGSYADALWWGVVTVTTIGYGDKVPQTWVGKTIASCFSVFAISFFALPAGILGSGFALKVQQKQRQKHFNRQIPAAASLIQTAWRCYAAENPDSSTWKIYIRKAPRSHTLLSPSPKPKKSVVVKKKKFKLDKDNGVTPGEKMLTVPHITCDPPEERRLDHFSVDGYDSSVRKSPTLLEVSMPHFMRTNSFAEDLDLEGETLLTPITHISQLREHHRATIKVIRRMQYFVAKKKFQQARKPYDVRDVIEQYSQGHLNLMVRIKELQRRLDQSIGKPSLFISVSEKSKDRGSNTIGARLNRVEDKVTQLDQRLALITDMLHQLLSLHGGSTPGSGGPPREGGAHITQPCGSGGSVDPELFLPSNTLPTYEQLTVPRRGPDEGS

Compound: CCCCC/C=C\C/C=C\C/C=C\C/C=C\CCCC(=O)N[C@H](CO)C(=O)O [ARA-D-S]
- ΔV50 (mV) (hKV7.1/KCNE1 (KV7.1) [1]): −29.0 mV

Compound: CCCCC/C=C\C/C=C\C/C=C\C/C=C\CCCC(=O)N[C@@H](CO)C(=O)O [ARA-S]
- EC50 (hKV7.1/KCNE1 (KV7.1) [2]): 9 µM

- EC50 (hKV7.1/KCNE1 (KV7.1) [3]): 5 µM
Compound: CC/C=C\C/C=C\C/C=C\C/C=C\C/C=C\C/C=C\CCC(=O)NC(CO)C(=O)O (stereo not shown) [DOC-S]

Compound: CCCCC/C=C\C/C=C\CCCCCCCC(=O)NC(CO)C(=O)O (stereo not shown) [LIN-S]
- EC50 (hKV7.1/KCNE1 (KV7.1) [4]): 12 µM

Compound: CCCCC/C=C\C/C=C\C/C=C\C/C=C\CCCC(=O)NCCCC(=O)O [NAGABA]
- ΔV50 (mV) (hKV7.1/KCNE1 (KV7.1) [5]): −6.7 mV

Compound: CCCCC/C=C\C/C=C\C/C=C\C/C=C\CCCC(=O)NCC(=O)O [NAGly]
- ΔV50 (mV) (hKV7.1/KCNE1 (KV7.1) [1]): −25.5 mV

Compound: CCCCC/C=C\C/C=C\C/C=C\C/C=C\CCCC(=O)N[C@@H](C)C(=O)O [NALA]
- ΔV50 (mV) (hKV7.1/KCNE1 (KV7.1) [1]): −22.2 mV
